The values that follow are results of earlier work, collected in patent publication US20210308071A1, “Treatment method to abort and or reduce the severity of upper respiratory viral illness as well as to prevent upper respiratory viral illness in humans” (priority 2020, published 2021).

For this data set the following is noted: for orally administered dose excreted as the glucuronic acid conjugate within 24 hours: humans.

Where two headings read alike, the source gives them in different places.

Regarding `CC1(C)C2CCC1(C)C(O)C2` (stereo not drawn) [Borneol], the “administered dose detected as the glucuronic acid conjugate in human urine” value (10 hours after ingestion of 2000 mg) was 81%. Also, the “orally administered dose excreted as the glucuronic acid conjugate within 24 hours” value is given as 81% (oral 1000 mg) and 94% (oral 2000 mg).
